Assay results taken from patent US6914045B2, “Glycopeptide antibiotics” (Wyeth Holdings Corporation, priority 2001, dated 2005).
≈ marks a conversion by molar mass, not a printed value.

Tests used:
Test in all cases: in vitro antibacterial evaluation, MIC by broth dilution
Format in all cases: cell-based
[1] = system: Enterococcus sp.; conditions: broth dilution, 18 hours at 35° C.
Description: (§1) Methods for in vitro Antibacterial Evaluation (Table 1)
(§2) The minimum inhibitory concentration (MIC), the lowest concentration of the antibiotic which inhibits growth of the test organism, is determined by the broth dilution method using Muller-Hinton II […] (Baltimore Biological Laboratories) following the recommendations of the National Committee for Clinical Laboratory Standards [Methods for dilution antimicrobial susceptibility tests for bacteria that grow aerobically, approved standard M7-A2, National Committee for Clinical Laboratory Standards, Villanova, Pa.].
(§3) An inoculum level of 5×10^5 CFU/mL, and a range of antibiotic concentrations (64-0.06 μg/mL) is used. […] The test organisms include a spectrum of Gram-positive bacteria comprised of Staphylococcus sp., Streptococcus sp. and Enterococcus sp. These organisms include recent clinical isolates that are resistant to methicillin, penicillin and/or vancomycin.

[2] = system: Streptococcus sp.; conditions: broth dilution, 18 hours at 35° C.
Description: as §1, §2, §3

[3] = system: Staphylococcus sp.; conditions: broth dilution, 18 hours at 35° C.
Description: as §1, §2, §3

[4] = system: Escherichia coli; conditions: 18 hours at 35° C.
Description: as §2, §3

- MIC Enterococcus avium (GC 4558) [1]: 4 µg/mL (≈ 2.67 µM)
- MIC Enterococcus faecalis (ATCC 29212) [1]: 8 µg/mL (≈ 5.35 µM)
- MIC Enterococcus faecalis (GC 2242) [1]: 8 µg/mL (≈ 5.35 µM)
- MIC Enterococcus faecalis (GC 2691) [1]: 16 µg/mL (≈ 10.7 µM)
- MIC Enterococcus faecalis (GC 3059) [1]: 16 µg/mL (≈ 10.7 µM)
- MIC Enterococcus faecalis (GC 4552) [1]: 8 µg/mL (≈ 5.35 µM)
- MIC Enterococcus faecalis (GC 4553) [1]: 4 µg/mL (≈ 2.67 µM)
- MIC Enterococcus faecalis (GC 4554) [1]: 16 µg/mL (≈ 10.7 µM)
- MIC Enterococcus faecalis (GC 6189) [1]: 16 µg/mL (≈ 10.7 µM)
- MIC Enterococcus faecium (GC 2243) [1]: 4 µg/mL (≈ 2.67 µM)
- MIC Enterococcus faecium (GC 4556) [1]: 8 µg/mL (≈ 5.35 µM)
- MIC Enterococcus faecium (GC 4557) [1]: 1 µg/mL (≈ 0.669 µM)
- MIC Enterococcus faecalis (ATCC 29212) ([1]; inoculum 5×10^5 CFU/mL, strain ATCC 29212): 8 µg/mL (≈ 5.35 µM)
- MIC Enterococcus faecalis (GC 2242) ([1]; inoculum 5×10^5 CFU/mL, strain GC 2242): 8 µg/mL (≈ 5.35 µM)
- MIC Enterococcus faecium (GC 2243) ([1]; inoculum 5×10^5 CFU/mL, strain GC 2243): 4 µg/mL (≈ 2.67 µM)
- MIC Enterococcus faecalis (GC 2691) ([1]; inoculum 5×10^5 CFU/mL, strain GC 2691): 16 µg/mL (≈ 10.7 µM)
- MIC Enterococcus faecalis (GC 3059) ([1]; inoculum 5×10^5 CFU/mL, strain GC 3059): 16 µg/mL (≈ 10.7 µM)
- MIC Enterococcus faecalis (GC 4552) ([1]; inoculum 5×10^5 CFU/mL, strain GC 4552): 8 µg/mL (≈ 5.35 µM)
- MIC Enterococcus faecalis (GC 4553) ([1]; inoculum 5×10^5 CFU/mL, strain GC 4553): 4 µg/mL (≈ 2.67 µM)
- MIC Enterococcus faecalis (GC 4554) ([1]; inoculum 5×10^5 CFU/mL, strain GC 4554): 16 µg/mL (≈ 10.7 µM)
- MIC Enterococcus faecium (GC 4556) ([1]; inoculum 5×10^5 CFU/mL, strain GC 4556): 8 µg/mL (≈ 5.35 µM)
- MIC Enterococcus faecium (GC 4557) ([1]; inoculum 5×10^5 CFU/mL, strain GC 4557): 1 µg/mL (≈ 0.669 µM)
- MIC Enterococcus avium (GC 4558) ([1]; inoculum 5×10^5 CFU/mL, strain GC 4558): 4 µg/mL (≈ 2.67 µM)
- MIC Enterococcus faecalis (GC 6189) ([1]; inoculum 5×10^5 CFU/mL, strain GC 6189): 16 µg/mL (≈ 10.7 µM)
- MIC Streptococcus agalactiae (GC 4564) [2]: 0.5 µg/mL (≈ 0.334 µM)
- MIC Streptococcus pneumoniae (ATCC 6301) [2]: 0.5 µg/mL (≈ 0.334 µM)
- MIC Streptococcus pneumoniae (GC 1894) [2]: <0.12 µg/mL
- MIC Streptococcus pneumoniae (GC 4565) [2]: 1 µg/mL (≈ 0.669 µM)
- MIC Streptococcus pyogenes (GC 4563) [2]: 0.5 µg/mL (≈ 0.334 µM)
- MIC Streptococcus pneumoniae (ATCC 6301) ([2]; inoculum 5×10^5 CFU/mL, strain ATCC 6301): 0.5 µg/mL (≈ 0.334 µM)
- MIC Streptococcus pneumoniae (GC 1894) ([2]; inoculum 5×10^5 CFU/mL, strain GC 1894): <0.12 µg/mL
- MIC Streptococcus pyogenes (GC 4563) ([2]; inoculum 5×10^5 CFU/mL, strain GC 4563): 0.5 µg/mL (≈ 0.334 µM)
- MIC Streptococcus agalactiae (GC 4564) ([2]; inoculum 5×10^5 CFU/mL, strain GC 4564): 0.5 µg/mL (≈ 0.334 µM)
- MIC Streptococcus pneumoniae (GC 4565) ([2]; inoculum 5×10^5 CFU/mL, strain GC 4565): 1 µg/mL (≈ 0.669 µM)
- MIC Staphylococcus aureus (ATCC 29213) ([3]; strain ATCC 29213): 4 µg/mL (≈ 2.67 µM)
- MIC Staphylococcus aureus (GC 1131) ([3]; strain GC 1131): 8 µg/mL (≈ 5.35 µM)
- MIC Staphylococcus aureus (GC 3051) ([3]; strain GC 3051): 4 µg/mL (≈ 2.67 µM)
- MIC Staphylococcus aureus (GC 3053) ([3]; strain GC 3053): 8 µg/mL (≈ 5.35 µM)
- MIC Staphylococcus aureus (GC 4541) ([3]; strain GC 4541): 4 µg/mL (≈ 2.67 µM)
- MIC Staphylococcus aureus (GC 4542) ([3]; strain GC 4542): 8 µg/mL (≈ 5.35 µM)
- MIC Staphylococcus aureus-SMITH (GC 4543) ([3]; strain GC 4543): 4 µg/mL (≈ 2.67 µM)
- MIC Staphylococcus aureus (GC 4544) ([3]; strain GC 4544): 8 µg/mL (≈ 5.35 µM)
- MIC Staphylococcus aureus (GC 4545) ([3]; strain GC 4545): 4 µg/mL (≈ 2.67 µM)
- MIC Coagulase Negative Staphylococcus (GC 4547) ([3]; strain GC 4547): 4 µg/mL (≈ 2.67 µM)
- MIC Coagulase Negative Staphylococcus (GC 4548) ([3]; strain GC 4548): 2 µg/mL (≈ 1.34 µM)
- MIC Coagulase Negative Staphylococcus (GC 4549) ([3]; strain GC 4549): 2 µg/mL (≈ 1.34 µM)
- MIC Coagulase Negative Staphylococcus (GC 4551) ([3]; strain GC 4551): 4 µg/mL (≈ 2.67 µM)
- MIC Escherichia coli (ATCC 25922) [4]: 128 µg/mL (≈ 85.6 µM)
- MIC Escherichia coli (GC 4559) [4]: 128 µg/mL (≈ 85.6 µM)
- MIC Escherichia coli (GC 4560) [4]: 4 µg/mL (≈ 2.67 µM)
Structure (SMILES): CC(C)=CCN1CC(C(O)C2NC(=O)C(C(O)C3CNC(=N)N3)NC(=O)C(Cc3ccc(OC4OC(CO)C(OC5OC6COC7(OC6C(O)C5O)C5CC6CC(C5)CC7C6)C(O)C4O)cc3)NC(=O)C(C(C)c3ccccc3)NC(=O)CNC(=O)C(CO)NC2=O)N(C2OC(CO)C(O)C(O)C2O)C1=N (stereo not drawn) [Example 225]
- MIC Staphylococcus haemolyticus (GC 4546) ([3]; strain GC 4546): 4 µg/mL (≈ 2.67 µM)
